We go through 1 molecule from PMC9628809, “Icaritin Preparation from Icariin by a Special Epimedium Flavonoid-Glycosidase from Aspergillus sp.y848 Strain” (Journal of Microbiology and Biotechnology, 2022).

The subject of this experiment is T1, Epimedium flavonoid-glycosidase.
T1 construct: native secreted enzyme purified from culture supernatant (DEAE-cellulose DE-52)
The experiment in a line: TLC scanning of substrate and products, Lineweaver-Burk plot. The settings on record: 0.02 M acetate buffer pH 5.0, 40°C; icariin 12.5-50 mM. In kind it is biochemical, Aspergillus sp. y848.

One may read the Km as the substrate concentration at which the rate is half of its maximum. For `COc1ccc(-c2oc3c(CC=C(C)C)c(O[C@@H]4O[C@H](CO)[C@@H](O)[C@H](O)[C@H]4O)cc(O)c3c(=O)c2O[C@@H]2O[C@@H](C)[C@H](O)[C@@H](O)[C@H]2O)cc1` [icariin], the Km amounted to 15.6 mM.
